This assay relates to uptake of 14C-cholesterol in the liver. As to the kind of experiment: Cholesterol absorption test (14C-cholesterol uptake in the liver) in NMRI mice. It is filed as in vivo. As for the experimental part: The compound of the invention of the formula I (ammonium salt) was tested for its effect using the method described below:
NMRI mice (in groups of n=4-6) are kept with a standard diet (altromin, lage (lippe)) in metabolism cages. The animals are fasted from the afternoon before administration of the radioactive tracer (^14C-cholesterol) and adapted to wire grids.
In addition, the animals are labeled with ^3H-TCA (taurocholic acid) s.c. 24 hours before the oral administration of the test meal (^14C-cholesterol in Intralipid® 20, Pharmacia-Upjohn) (e.g. 1 μCi/mouse to 5 μCi/rat).
Cholesterol absorption test: 0.25 ml/mouse Intralipid® 20 (Pharmacia-Upjohn) (spiking with 0.25 μCi ^14C-cholesterol in 0.1 mg of cholesterol) is administered orally by gavage.
Test substances are made up separately in 0.5%/(methylcellulose (Sigma)/5% Solutol (BASF, Ludwigshafen) or a suitable vehicle.
The volume for administration of the test substance is 0.5 ml/mouse. The test substance is administered immediately before the test meal (Intralipid with ^14C-cholesterol label) (cholesterol absorption test).
The livers are removed, homogenized and combusted in aliquots in an oximate (model 307, Packard) to determine the amount of ^14C-cholesterol taken up/absorbed.
The amount of ^14C-cholesterol taken up in the liver is related to the dose administered. […]

With `N.O=C(Oc1ccc([C@@H]2[C@@H](CC[C@H](O)c3ccc(F)cc3)C(=O)N2c2ccc(F)cc2)c(F)c1)N1CCN(S(=O)(=O)O)CC1` [I (ammonium salt), Ammonium 4-(3-fluoro-4-{(2S,3R)-1-(4-fluorophenyl)-3-[(S)-3-(4-fluoro-phenyl)-3-hydroxylpropyl]-4-oxoazetidin-2-yl}phenoxycarbonyl)piperazine-1-sulfonate], the “ED50 (liver)” value (NMRI mice, oral, test substance given immediately before 14C-cholesterol test meal, dose which halves uptake of 14C-cholesterol in the liver relative to control) is recorded as 0.01 mg/mouse.

`O=C(Oc1ccc([C@@H]2[C@@H](CC[C@H](O)c3ccc(F)cc3)C(=O)N2c2ccc(F)cc2)c(F)c1)N1CCN(S(=O)(=O)O)CC1` [I]: the “activity relative to comparison compound LVIII from WO 2004/000804 (times better)” value (ratio of ED50 (liver) values) came to 10 times.

(Values after patent publication US20090264402A1, “NOVEL DIPHENYLAZETIDINONE SUBSTITUTED BY PIPERAZINE-1-SULFONIC ACID AND HAVING IMPROVED PHARMACOLOGICAL PROPERTIES” (SANOFI-AVENTIS DEUTSCHLAND GMBH, priority 2006, published 2009).)
